We go through one substance from US6818215B2, “Antibodies to senescent cell-derived inhibiters of DNA synthesis” (priority 1991, dated 2004).

In one experiment the target is T1, cdk2 protein (Homo sapiens, UniProt P24941).
T1 construct: host or cells: baculovirus expression system
The experiment in a line: Binding of in vitro translated SDI-1 deletion mutants to purified cdk2, anti-cdk2 immunoprecipitation. Particulars: 45 μl translation product, 1 ug cdk2, 4° C. The procedure: To determine whether the DNA synthesis inhibition caused by these mutants was occurring through inhibition of cdk kinases, the binding of in vitro translated deletion mutant proteins products with purified cdk2protein was examined. Thus, the various deletion mutants of SDI-1 were translated in reticulocyte lysates (Promega) using pBluescript based plasmids as transcription templates for the T7 RNA polymerase. For in vitro binding, 45 μl of the translation product was added to 500 μl binding buffer (50 mM Tris/HCl, pH 7.5, 120 mM NaCl, 2 mM EDTA, 0.1% NP-40, 1 mM NaF, 0.1 m.M sodium vanidate, 5 μg/ml leupeptin, 5 μg/ml soybean trypsin inhibitor, 5 μg/ml aprotinin) containing 1 ug cdk2 protein purified from a bacculovirus expression system. The mixture was gently rocked for 1 hour at 4° C. and then 7.5 μg anti-cdk2 rabbit polyclonal antibody was added. Mixing was continued for 1 hour at 4° C. The immunocomplex was absorbed by incubation with 40 μl protein G plus A beads for 2 hr. The matrices were then washed three times with 0.5 ml of binding buffer prior to electrophoresis and autoradiography.

The subject of experiment [1] is SV40 early promoter with mutant E2F binding sites (SV/E2Fm). The experiment is described as follows: CAT reporter transcription assay, SV/E2Fm-CAT. Format: cell-based. Particulars: A31 cells. The method, then:
The effect of the human SDI-1 on transcription driven by two E2F-responsive promoters was determined. Proliferating A31 cells were transfected with an SDI-1 expression vector in which the SDI-1 cDNA was driven by the strong constitutive cytomegalovirus early promoter (CMV) together with a reporter vector in which the chloramphenicol acetyltransferase (CAT) gene was driven by either the hamster dihydrofolate reductase (DHFR) promoter or the human cdc2 promoter (cdc2-CAT). A31 cells are Balb/c murine 3T3 fibroblasts whose origin and growth properties have been described (Lu, K. et al., Molec. Cell. Biol. 9:3411-3417 (1989); Dimri, G. P et al., J. Biol. Chem. 269:16180-16186 (1994), herein incorporated by reference). Cells were transfected with 2 μg of expression vectors, reporters vectors (for transactivation) and the CMV-β-gal identification/normalization vector using Lipofectamine (Gibco-BRL), as described by Dimri, G. P et al. (J. Biol. Chem. 269:16180-16186 (1994), herein incorporated by reference), The vector backbone was added to the mixture as needed to equalize the amount of transfected DNA. […]
To more critically ascertain whether the inhibition of transcription by SDI-1 was E2F-dependent, three E2F binding sites were inserted into the SV40 early promoter and the effect of CMV-SDI-1 on CAT activity driven by this modified promoter (SV/E2F) was determined. […]

For the next experiment, the system named is A31 cells. The experiment is described as follows: DNA synthesis in transfected (β-galactosidase positive) cells, radiolabeled nuclei. Format: cell-based, murine. The method, then: The effect of the human SDI-1 on transcription driven by two E2F-responsive promoters was determined. Proliferating A31 cells were transfected with an SDI-1 expression vector in which the SDI-1 cDNA was driven by the strong constitutive cytomegalovirus early promoter (CMV) together with a reporter vector in which the chloramphenicol acetyltransferase (CAT) gene was driven by either the hamster dihydrofolate reductase (DHFR) promoter or the human cdc2 promoter (cdc2-CAT). A31 cells are Balb/c murine 3T3 fibroblasts whose origin and growth properties have been described (Lu, K. et al., Molec. Cell. Biol. 9:3411-3417 (1989); Dimri, G. P et al., J. Biol. Chem. 269:16180-16186 (1994), herein incorporated by reference). Cells were transfected with 2 μg of expression vectors, reporters vectors (for transactivation) and the CMV-β-gal identification/normalization vector using Lipofectamine (Gibco-BRL), as described by Dimri, G. P et al. (J. Biol. Chem. 269:16180-16186 (1994), herein incorporated by reference), The vector backbone was added to the mixture as needed to equalize the amount of transfected DNA. Seventy-two hours later, the cells were lysed and assayed for chloramphenicol acetyl transferase (CAT) and β-galactosidase activity. Both DHFR and cdc2 were expressed by proliferating cells, largely due to E2F-mediated transcription that is dependent on E2F binding sites in the 5′ regulatory regions of these genes (Slansky, J. E. et al., Molec. Cell. Biol. 13:1610-1618 (1993); Dalton, S., EMBO J. 11:1797-1804 (1992)).
These mutants included a naturally occurring SDI-1 variant (p21pm) in which the serine at amino acid 31 was replaced by an arginine. This polymorphism has been detected in approximately 10% of normal human cells thus far examined, and appears to result in a slight reduction in the antiproliferative properties of SDI-1 (Table 17). A SDI-1 expression vector for this allele (CMV-p21pm) was compared with CMV-SDI-1 for ability to inhibit DNA synthesis and E2F-mediated transactivation in proliferating A31 cells. […]

Turning to “SDI-1: senescent cell derived inhibitor of DNA synthesis, 164 amino acid protein, SEQ ID NO:2”, the “binding to purified cdk2 protein” value in the experiment with cdk2 protein is given as “bound cdk2 protein efficiently”. Also, in experiment [1], the “Transcription (Normalized) % Activity” value came to 93% and the “Transcription (Normalized) % Inhibition” value stood at 7%. For the same substance, the “inhibition (antiproliferative effect)” value in the experiment on A31 cells (A31 cells) is on record as 65-75%. The “DNA Synthesis % LN” value in the experiment with A31 cells (percentage of transfected cells with radiolabeled nuclei) amounted to 17%. Moreover, in the experiment with A31 cells (proliferating A31 cells), the “DNA Synthesis % Inhibition” value turned out to be 75%.
